Results as given in patent US20250134909A1, “GEL COMPOSITION FOR PREVENTION OR TREATMENT OF ATOPIC DERMATITIS” (SHAPERON INC., priority 2021, published 2025).

System: atopic dermatitis-induced animal model by DNCB
Experiment: Thickness of the epidermis and dermis (H&E), DNCB-induced atopic dermatitis model
Type: in vivo, mice
Conditions: 15th day, FIGS. 5 to 7; for dermal thickness: compared to the DNCB group and the normal Sham group; for skin epithelium thickness: compared to the DNCB group
Experimental: […] of a solution of 2,4-Dinitrochlorobenzene (DNCB) dissolved in acetone at a concentration of 1% or 2% was applied to the backs of mice with hair removed twice a day for 2 days, then on the 3rd day, a solution of […] containing 1% concentration of DNCB dissolved in acetone was applied twice daily, and additional applications of a solution of […] containing 1% concentration of DNCB dissolved in acetone or a solution diluted 10 times were applied twice daily on the shaved backs of mice until the 10th to 11th day starting from the day of the initial application of DNCB solution, to induce atopic dermatitis (FIG. 1).
To compare and confirm the therapeutic effects of 0.5% HY209_HA gel and 5% HY209_PEG gel on atopic dermatitis through measurement of the thickness of the epidermis and dermis in the atopic dermatitis-induced animal model of <Example 2>, each individual in the groups treated with 0.5% HY209_HA Gel, 5% HY209_PEG gel, Maxidex ointment, Eucrisa ointment, and Protopic ointment in <Experimental Example 1> had their atopic dermatitis-induced areas scarified on the 15th day from the induction of atopic dermatitis, and the Sham (untreated) group, where atopic dermatitis was not induced, and the DNCB group, which was not treated after the induction of atopic dermatitis, were also scarified on the 15th day.
After collecting skin tissues from each group of mice, the tissue samples were sliced and then fixed in 10% formalin solution for 24 hours, then rinsed with distilled water, processed into paraffin blocks, and sectioned into […] thickness slices, these slices were stained with Hematoxylin and Eosin (H&E), and observed under an optical microscope, and then the thickness of the epithelium and dermis were measured using image analysis software and analyzed using analysis software.

| SMILES | dermal thickness | skin epithelium thickness |
| --- | --- | --- |
| N#Cc1ccc(Oc2ccc3c(c2)COB3O)cc1 [Crisaborole] | recovered close to that of the normal Sham group | significantly reduced |
| C=CC[C@@H]1/C=C(\C)C[C@H](C)C[C@H](OC)[C@H]2O[C@@](O)(C(=O)C(=O)N3CCCC[C@H]3C(=O)O[C@H](/C(C)=C/[C@@H]3CC[C@@H](O)[C@H](OC)C3)[C@H](C)[C@@H](O)CC1=O)[C@H](C)C[C@@H]2OC [FK506, Tacrolimus] | recovered close to that of the normal Sham group | significantly reduced |
